Measurements taken from patent publication US20260035376A1, “COMPOSITIONS AND METHODS FOR INHIBITION OF RAS” (TheRas, Inc., priority 2022, published 2026).

Key:
[1] = target: T1, Avi-KRAS G12D (1-169) GppNHp/RAF1 RBD-3×FLAG (52-151) (Homo sapiens, UniProt P01116, G12D); assay: Disrupting RAS-effector binding HTRF assay, Raf1 RBD-KRAS G12D-GppNHp; conditions: PPI HTRF, 50 nM Avi-KRAS G12D GppNHp, compound titration 30-0.0045 μM; read-out: Raf1 RBD-KRAS G12D-GppNHp disruption
T1 construct: 50 nM Avi-KRAS G12D (1-169) GppNHp/RAF1 RBD-3×FLAG (52-151)
Description: (§1) A protein:protein interaction (PPI) Homogeneous Time Resolved Fluorescence (HTRF) assay was used to determine the effectiveness of compounds of the present disclosure in disrupting KRAS protein and effector RAF1 binding.
(§2) The HTRF assay used the following reagents and proteins: (i) 50 nM Avi-KRAS G12D (1-169) GppNHp/RAF1 RBD-3×FLAG (52-151); (ii) 50 nM Avi-KRAS G12R (1-169) GppNHp/RAF1 RBD-3×FLAG (52-151); (iii) 50 nM Avi-KRAS G12V (1-169) GppNHp/RAF1 RBD-3×FLAG (52-151), (iv) 50 nM Avi-KRAS WT (1-169) GppNHp/RAF1 RBD-3×FLAG (52-151); and (v) 75 nM Avi-RAF1 RBD-3×FLAG. The assay buffer included: 50 mM Tris pH 7.5, 100 mM NaCl, 5 mM MgCl2, 0.1% BSA, […], 10% DMSO. The bead buffer included: 50 mM Tris pH 7.5, 0.01% o Tween 20. Assay volume of 20 μL was used in a 384 well plate-low volume format. Compound titration: 30-0.0045 μM, 3× dilution series.
(§3) The HTRF assay employed the following protocol:
(§4) Compounds were dispensed in assay plate (384-well, Grenier Bione #784075) using Echo (model 555) with dose response settings: 200 nL final volume, titration from 30 μM as a 10-point dilution series. Protein mix was prepared in assay buffer, and dispensed on plates, 10 μL per well, then incubated for 1 h at room temperature, with 700 rpm shaking. Reagents mix was prepared and dispensed on plates, 10 μL per well, then incubated for 1 h at room temperature, with 700 rpm shaking.
(§5) Plates were analyzed on an Envision plate reader using the following setting: Excitation 320 nm, Bandwidth 75 nM; Emission 615 nm, Bandwidth 85 nM, Gain 100%, Flashes 100, Lag 60 μs. Data were reported as percentage of activity, with DMSO as 100%. Data were plotted and analyzed using Prism 8.
(§6) The biochemical Raf1-KRAS G12D/G12R/G12V/WT-GppNHP disruption assay IC50 of selected compounds described herein are shown in Table 4.

[2] = target: T2, Avi-KRAS WT (1-169) GppNHp/RAF1 RBD-3×FLAG (52-151) (Homo sapiens, UniProt P01116); assay: Disrupting RAS-effector binding HTRF assay, Raf1 RBD-KRAS WT-GppNHp; conditions: PPI HTRF, 50 nM Avi-KRAS WT GppNHp, compound titration 30-0.0045 μM; read-out: Raf1 RBD-KRAS WT-GppNHp disruption
T2 construct: 50 nM Avi-KRAS WT (1-169) GppNHp/RAF1 RBD-3×FLAG (52-151)
Description: as §1, §2, §3, §4, §5, §6

[3] = target: T3, Avi-KRAS G12V (1-169) GppNHp/RAF1 RBD-3×FLAG (52-151) (Homo sapiens, UniProt P01116, G12V); assay: Disrupting RAS-effector binding HTRF assay, Raf1 RBD-KRAS G12V-GppNHp; conditions: PPI HTRF, 50 nM Avi-KRAS G12V GppNHp, compound titration 30-0.0045 μM; read-out: Raf1 RBD-KRAS G12V-GppNHp disruption
T3 construct: 50 nM Avi-KRAS G12V (1-169) GppNHp/RAF1 RBD-3×FLAG (52-151)
Description: as §1, §2, §3, §4, §5, §6

[4] = system: KRAS G12D protein/effector signaling in GP2d cells; assay: Cell-based pERK HTRF assay in GP2d cell; conditions: 1 h, 60 min incubation
Description: A pERK assay (Perkin Elmer) was used to determine the effectiveness of compounds in disrupting KRAS G12D protein/effector signaling in cells.
On Day 1, cells (GP2d) were seeded into 96-well plates at 3×10^4 cells/well in 80 μL complete growth media (DMEM, 10% FBS).
(§7) On Day 2, cells were treated with compounds at 0.25% DMSO. The source plate was created with compounds diluted in media at 5-fold the final assay concentration. The compounds were run in a 9-point concentration curve starting at 1 M, with a half-log dilution between concentrations. 20 μL was transferred onto the cell plates (final volume in wells was 100 μL). Plates were harvested after 60 min incubation by aspirating media and adding kit-supplied 1× supplemented lysis buffer to all wells (50 μL per well). Plates were then placed on a plate shaker and incubated at 850 rpm for an additional 30 min.
Antibody mixture solution was prepared by diluting aliquoted d2 and Eu Cryptate antibodies 1:20 in kit supplied detection buffer, and mixing the diluted antibodies solutions (1:1 v:v). 4 μL of this solution was then added to a 384-well detection plate (Perkin Elmer; 6008230).
(§8) Samples were homogenized by pipetting up and down and then transferred (16 μL of cell lysates) from the 96-well cell culture plate to two wells of the HTRF 384-well detection plate containing the antibody solution. Plates were centrifuged (524 g for 1 min) and allowed to incubate between 4 and 24 h at room temperature. Maximum signal was reached after 4 h incubation time and remained stable over a period of 24 hours. Therefore, readings could be made between 4 and 24 h of incubation. Plates were centrifuged again (524 g for 1 min), then analyzed on the EnVision plate reader using the following settings: Excitation 320 nm, Bandwidth 75 nm; Emission 615 nm, Bandwidth 85 nm; Gain 100%; Flashes 100; Lag 60 μs.

[5] = system: KRAS G12V protein/effector signaling in SW620 cells; assay: Cell-based pERK HTRF assay in SW620 cell; conditions: Homo sapiens, SW-620, 1 h incubation
Description: pERK assay (Perkin Elmer) was used to determine the effectiveness of compounds in disrupting KRAS G12V protein/effector signaling in cells.
On Day 1, cells (SW620) were seeded into 96-well plates at 3×10^4 cells/well in 80 μL complete growth media (DMEM, 10% FBS).
as §7, with “10 μM,” for “1 M,”, “1 h” for “60 min”
Antibody mixture solution was prepared by diluting aliquoted d2 and Eu Cryptate antibodies 1:20 in kit supplied detection buffer, and mixing the diluted antibodies solutions (1:1 v:v). Four μL of this solution was then added to a 384-well detection plate (Perkin Elmer; 6008230).
as §8

[6] = target: T4, Avi-KRAS G12R (1-169) GppNHp/RAF1 RBD-3×FLAG (52-151) (Homo sapiens, UniProt P01116, G12R); assay: Disrupting RAS-effector binding HTRF assay, Raf1 RBD-KRAS G12R-GppNHp; conditions: PPI HTRF, 50 nM Avi-KRAS G12R GppNHp, compound titration 30-0.0045 μM; read-out: Raf1 RBD-KRAS G12R-GppNHp disruption
T4 construct: 50 nM Avi-KRAS G12R (1-169) GppNHp/RAF1 RBD-3×FLAG (52-151)
Description: as §1, §2, §3, §4, §5, §6

T4 sequence (P01116 1-169 isoform P01116-2 G12R limits assumed): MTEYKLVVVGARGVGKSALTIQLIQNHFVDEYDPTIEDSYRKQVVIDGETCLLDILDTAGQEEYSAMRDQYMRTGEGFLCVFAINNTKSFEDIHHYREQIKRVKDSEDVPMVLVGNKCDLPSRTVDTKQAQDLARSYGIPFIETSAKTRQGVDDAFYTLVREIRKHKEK
T1 sequence (P01116 1-169 isoform P01116-2 G12D limits assumed): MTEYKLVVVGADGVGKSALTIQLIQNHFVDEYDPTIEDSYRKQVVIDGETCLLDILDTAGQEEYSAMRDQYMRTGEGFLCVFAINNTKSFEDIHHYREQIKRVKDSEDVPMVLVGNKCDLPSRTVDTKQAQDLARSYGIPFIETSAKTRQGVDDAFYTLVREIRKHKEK
T3 sequence (P01116 1-169 isoform P01116-2 G12V limits assumed): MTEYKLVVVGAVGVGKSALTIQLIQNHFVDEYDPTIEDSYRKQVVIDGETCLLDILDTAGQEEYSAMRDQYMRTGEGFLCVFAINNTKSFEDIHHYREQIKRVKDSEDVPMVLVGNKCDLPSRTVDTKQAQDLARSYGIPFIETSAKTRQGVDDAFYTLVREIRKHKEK
T2 sequence (P01116 1-169 isoform P01116-2 limits assumed): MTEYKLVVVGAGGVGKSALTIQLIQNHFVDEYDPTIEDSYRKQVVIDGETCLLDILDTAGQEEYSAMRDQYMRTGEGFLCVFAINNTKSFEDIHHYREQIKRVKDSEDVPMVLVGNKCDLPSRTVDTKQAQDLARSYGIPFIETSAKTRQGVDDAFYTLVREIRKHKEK

Compound	IC50 [1] [µM]	IC50 [2] [µM]	IC50 [3] [µM]	IC50 [4] [µM]	IC50 [5] [µM]	IC50 [6] [µM]
N#Cc1c(N)sc2c(F)ccc(-c3c(C(F)(F)F)cc4c(N5CC6CCC(C5)N6)nc(OCC5CCCO5)nc4c3F)c12 (stereo not drawn) [Compound 45]	0.1 to 1	1 to 10	1 to 10	≤ 0.1	> 10	1 to 10
N#Cc1c(N)sc2c(F)ccc(-c3c(C(F)(F)F)cc4c(N5CC6CCC(C5)N6)nc(OCCC5CCOC5)nc4c3F)c12 (stereo not drawn) [Compound 50]	0.1 to 1	1 to 10	> 10	≤ 0.1	> 10	> 10
N#Cc1c(N)sc2c(F)ccc(-c3c(C(F)(F)F)cc4c(N5CC6CCC(C5)N6)nc(OCC5CC6CCC(C5)O6)nc4c3F)c12 (stereo not drawn) [Compound 52]	1 to 10	1 to 10	> 10	≤ 0.1	> 10	> 10
N#Cc1c(N)sc2c(F)ccc(-c3c(C(F)(F)F)cc4c(N5CC6CCC(C5)N6)nc(OC[C@@H](O)CO)nc4c3F)c12 [Compound 34]	0.1 to 1	1 to 10	1 to 10	0.1 to 1	> 10	> 10
N#Cc1c(N)sc2c(F)ccc(-c3c(C(F)(F)F)cc4c(N5CC6CCC(C5)N6)nc(OCC5CCCCO5)nc4c3F)c12 (stereo not drawn) [Compound 49]	1 to 10	1 to 10	> 10	≤ 0.1	> 10	> 10
N#Cc1c(N)sc2c(F)ccc(-c3c(C(F)(F)F)cc4c(N5CC6CCC(C5)N6)nc(OCC5CCCOC5)nc4c3F)c12 (stereo not drawn) [Compound 48]	1 to 10	1 to 10	> 10	≤ 0.1	> 10	> 10
N#Cc1c(N)sc2c(F)ccc(-c3c(C(F)(F)F)cc4c(N5CC6CCC(C5)N6)nc(OCCCCO)nc4c3F)c12 [Compound 41]	0.1 to 1	1 to 10	> 10	≤ 0.1	> 10	> 10
CN1C(=O)CC[C@@H]1COc1nc(N2CC3CCC(C2)N3)c2cc(C(F)(F)F)c(-c3ccc(F)c4sc(N)c(C#N)c34)c(F)c2n1 [Compound 57]	0.1 to 1	1 to 10	> 10	≤ 0.1	> 10	> 10
N#Cc1c(N)sc2c(F)ccc(-c3c(C(F)(F)F)cc4c(N5CC6CCC(C5)N6)nc(OCCC5CCOCC5)nc4c3F)c12 [Compound 46]	0.1 to 1	1 to 10	> 10	≤ 0.1	> 10	> 10
CN1C[C@H](COc2nc(N3CC4CCC(C3)N4)c3cc(C(F)(F)F)c(-c4ccc(F)c5sc(N)c(C#N)c45)c(F)c3n2)CC1=O [Compound 33]	0.1 to 1	1 to 10	> 10	≤ 0.1	> 10	> 10
CN1CCC(COc2nc(N3CC4CCC(C3)N4)c3cc(C(F)(F)F)c(-c4ccc(F)c5sc(N)c(C#N)c45)c(F)c3n2)C1=O (stereo not drawn) [Compound 55]	0.1 to 1	0.1 to 1	1 to 10	≤ 0.1	> 10	1 to 10
N#CCCOc1nc(N2CC3CCC(C2)N3)c2cc(C(F)(F)F)c(-c3ccc(F)c4sc(N)c(C#N)c34)c(F)c2n1 [Compound 44]	1 to 10	1 to 10	> 10	≤ 0.1	> 10	> 10
N#Cc1c(N)sc2c(F)ccc(-c3c(C(F)(F)F)cc4c(N5CC6CCC(C5)N6)nc(OC[C@H]5COCCO5)nc4c3F)c12 [Compound 40]	0.1 to 1	0.1 to 1	1 to 10	≤ 0.1	> 10	1 to 10
N#Cc1c(N)sc2c(F)ccc(-c3c(C(F)(F)F)cc4c(N5CC6CCC(C5)N6)nc(O)nc4c3F)c12 [Compound 43]	> 10	> 10	> 10	> 1	> 10	> 10
CN(c1nc(OCC2CCOCC2)nc2c(F)c(-c3ccc(F)c4sc(N)c(C#N)c34)c(C(F)(F)F)cc12)[C@@H]1CCCNC1 [Compound 62]	1 to 10	> 10	> 10	> 1	> 10	> 10
N#Cc1c(N)sc2c(F)ccc(-c3c(C(F)(F)F)cc4c(N5CC6CCC(C5)N6)nc(OCCC5CCCO5)nc4c3F)c12 (stereo not drawn) [Compound 51]	0.1 to 1	1 to 10	> 10	≤ 0.1	> 10	> 10
N#Cc1c(N)sc2c(F)ccc(-c3c(C(F)(F)F)cc4c(N5CC6CCC(C5)N6)nc(OCC5CCOC5)nc4c3F)c12 (stereo not drawn) [Compound 47]	0.1 to 1	1 to 10	> 10	≤ 0.1	> 10	> 10
